# Reference: publication PMC7284416, “The Product Specificities of Maize Terpene Synthases TPS4 and TPS10 Are Determined Both by Active Site Amino Acids and Residues Adjacent to the Active Site” (Plants, 2020)
# T1: TPS4 (tps4-B73) (Zea mays, UniProt Q6JD73)
# T1 construct: expressed in E. coli BL21(DE3) from pHIS8-3, N-terminal His8 tag kept, Ni-NTA purified; forward primer starts the ORF at codons for SSTFHPSL, native C-terminus FVEPIPE
# T1 sequence (Q6JD73 21-554): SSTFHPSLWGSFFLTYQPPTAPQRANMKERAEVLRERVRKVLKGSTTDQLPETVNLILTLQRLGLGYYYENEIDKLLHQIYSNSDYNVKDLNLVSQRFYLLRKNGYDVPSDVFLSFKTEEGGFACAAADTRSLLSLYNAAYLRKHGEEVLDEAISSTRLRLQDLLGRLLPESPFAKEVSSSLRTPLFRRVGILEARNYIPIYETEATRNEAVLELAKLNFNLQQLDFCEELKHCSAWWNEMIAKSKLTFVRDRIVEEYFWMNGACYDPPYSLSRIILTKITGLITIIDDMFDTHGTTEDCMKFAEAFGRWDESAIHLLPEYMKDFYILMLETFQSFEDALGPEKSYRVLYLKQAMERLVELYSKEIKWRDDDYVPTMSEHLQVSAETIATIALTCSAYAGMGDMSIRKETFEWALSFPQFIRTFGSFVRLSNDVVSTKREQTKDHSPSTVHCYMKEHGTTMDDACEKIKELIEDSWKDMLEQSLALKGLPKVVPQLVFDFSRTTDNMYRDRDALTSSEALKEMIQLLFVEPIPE
# T2: TPS4 (tps4-B73) (Zea mays, UniProt Q6JD73, I411F/R442K, form not given)
# T2 construct: expressed in E. coli BL21(DE3) from pHIS8-3, N-terminal His8 tag kept, Ni-NTA purified; forward primer starts the ORF at codons for SSTFHPSL, native C-terminus FVEPIPE
# T2 sequence (Q6JD73 21-554 I411F/R442K): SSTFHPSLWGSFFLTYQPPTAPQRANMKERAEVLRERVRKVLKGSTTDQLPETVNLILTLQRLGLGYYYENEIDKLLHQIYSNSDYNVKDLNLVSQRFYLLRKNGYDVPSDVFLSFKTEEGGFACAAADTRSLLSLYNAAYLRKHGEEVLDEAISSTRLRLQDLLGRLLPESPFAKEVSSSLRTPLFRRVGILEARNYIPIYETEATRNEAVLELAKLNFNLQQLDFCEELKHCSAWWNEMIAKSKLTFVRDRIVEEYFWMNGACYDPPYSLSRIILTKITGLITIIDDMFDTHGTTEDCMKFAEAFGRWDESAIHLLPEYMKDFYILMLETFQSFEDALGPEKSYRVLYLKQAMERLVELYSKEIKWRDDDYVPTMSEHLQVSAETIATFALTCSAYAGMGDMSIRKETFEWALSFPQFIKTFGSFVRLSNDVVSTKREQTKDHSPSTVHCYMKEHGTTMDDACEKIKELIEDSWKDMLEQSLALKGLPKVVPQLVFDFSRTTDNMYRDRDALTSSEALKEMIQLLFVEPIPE
# T3: TPS10 (tps10-B73) (Zea mays, UniProt Q2NM15)
# T3 construct: expressed in E. coli BL21(DE3) from pHIS8-3 (NcoI/EcoRI), His tag kept, Ni-NTA purified; printed forward primer codes for MPPPS at the N-terminus
# T3 sequence (Q2NM15 1-533): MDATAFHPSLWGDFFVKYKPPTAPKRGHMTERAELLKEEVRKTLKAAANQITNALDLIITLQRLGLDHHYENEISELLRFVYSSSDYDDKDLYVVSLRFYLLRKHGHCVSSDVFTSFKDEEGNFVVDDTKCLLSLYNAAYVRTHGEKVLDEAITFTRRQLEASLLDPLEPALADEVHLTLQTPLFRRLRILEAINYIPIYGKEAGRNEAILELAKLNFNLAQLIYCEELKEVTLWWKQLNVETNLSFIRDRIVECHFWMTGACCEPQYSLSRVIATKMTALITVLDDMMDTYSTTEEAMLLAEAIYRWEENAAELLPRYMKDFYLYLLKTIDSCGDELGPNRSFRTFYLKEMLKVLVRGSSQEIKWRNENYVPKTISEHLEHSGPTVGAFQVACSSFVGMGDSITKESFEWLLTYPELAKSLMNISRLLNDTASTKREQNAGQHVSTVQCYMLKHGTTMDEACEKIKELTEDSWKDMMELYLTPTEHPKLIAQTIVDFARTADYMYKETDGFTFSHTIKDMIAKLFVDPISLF
# Legend:
# [1] = target: T1, TPS4 (tps4-B73); experiment: [[…]-3H]FPP turnover, pentane-extracted products, scintillation counting; assay type: biochemical; conditions: 10 mM MgCl2, 10 mM Mopso pH 7.0, 1 mM DTT, 10% glycerol, 30 °C; labelled compound; read-out: TPS4-c17
# [2] = target: T2, TPS4 (tps4-B73); experiment: as above; assay type: biochemical; conditions: 10 mM MgCl2, 10 mM Mopso pH 7.0, 1 mM DTT, 10% glycerol, 30 °C; labelled compound; read-out: TPS4-c17 R442K + I411F
# [3] = target: T3, TPS10 (tps10-B73); experiment: as above; assay type: biochemical; conditions: 10 mM MgCl2, 10 mM Mopso pH 7.0, 1 mM DTT, 10% glycerol, 30 °C; labelled compound
# [4] = substrate: CC(C)=CCC/C(C)=C/CC/C(C)=C/CO[P@@](=O)(O)OP(=O)(O)O; experiment: purified protein; assay type: biochemical, Zea mays; conditions: 10 mM MgCl2, 10 mM Mopso pH 7.0, 1 mM DTT, 10% glycerol, 30 °C, labelled compound
Km [1],Km [2],Km [3],Molecule,Km [4],kcat [4]
2.1 ± 0.3 µM,2.3 ± 0.3 µM,3.2 ± 0.5 µM,"CC(C)=CCC/C(C)=C/CC/C(C)=C/CO[P@@](=O)(O)OP(=O)(O)O [(E,E)-farnesyl diphosphate]",–,–
–,–,–,"TPS4 (tps4-B73) (Zea mays) (protein, expressed in E. coli BL21(DE3) from pHIS8-3, N-terminal His8 tag kept, Ni-NTA purified; forward primer starts the ORF at codons for SSTFHPSL, native C-terminus FVEPIPE) SSTFHPSLWGSFFLTYQPPTAPQRANMKERAEVLRERVRKVLKGSTTDQLPETVNLILTLQRLGLGYYYENEIDKLLHQIYSNSDYNVKDLNLVSQRFYLLRKNGYDVPSDVFLSFKTEEGGFACAAADTRSLLSLYNAAYLRKHGEEVLDEAISSTRLRLQDLLGRLLPESPFAKEVSSSLRTPLFRRVGILEARNYIPIYETEATRNEAVLELAKLNFNLQQLDFCEELKHCSAWWNEMIAKSKLTFVRDRIVEEYFWMNGACYDPPYSLSRIILTKITGLITIIDDMFDTHGTTEDCMKFAEAFGRWDESAIHLLPEYMKDFYILMLETFQSFEDALGPEKSYRVLYLKQAMERLVELYSKEIKWRDDDYVPTMSEHLQVSAETIATIALTCSAYAGMGDMSIRKETFEWALSFPQFIRTFGSFVRLSNDVVSTKREQTKDHSPSTVHCYMKEHGTTMDDACEKIKELIEDSWKDMLEQSLALKGLPKVVPQLVFDFSRTTDNMYRDRDALTSSEALKEMIQLLFVEPIPE",3.8 ± 0.5 µM,0.0105 ± 0.0006 s⁻¹
